In brackets after ≈: the same amount, converted by molar mass.
What was measured:
[1] = target: T1, COX-1 (Ovis aries, UniProt P05979); assay: fluorometric COX-1 inhibitor screening kit assay; format: biochemical; conditions: for SI (selectivity index): IC50 (COX-1)/IC50 (COX-2); for IC50: fluorometric kit, 25 °C; for Selectivity: isoform preferred according to SI
T1 construct: purchased Biovision K548-100
T1 sequence (P05979 25-600): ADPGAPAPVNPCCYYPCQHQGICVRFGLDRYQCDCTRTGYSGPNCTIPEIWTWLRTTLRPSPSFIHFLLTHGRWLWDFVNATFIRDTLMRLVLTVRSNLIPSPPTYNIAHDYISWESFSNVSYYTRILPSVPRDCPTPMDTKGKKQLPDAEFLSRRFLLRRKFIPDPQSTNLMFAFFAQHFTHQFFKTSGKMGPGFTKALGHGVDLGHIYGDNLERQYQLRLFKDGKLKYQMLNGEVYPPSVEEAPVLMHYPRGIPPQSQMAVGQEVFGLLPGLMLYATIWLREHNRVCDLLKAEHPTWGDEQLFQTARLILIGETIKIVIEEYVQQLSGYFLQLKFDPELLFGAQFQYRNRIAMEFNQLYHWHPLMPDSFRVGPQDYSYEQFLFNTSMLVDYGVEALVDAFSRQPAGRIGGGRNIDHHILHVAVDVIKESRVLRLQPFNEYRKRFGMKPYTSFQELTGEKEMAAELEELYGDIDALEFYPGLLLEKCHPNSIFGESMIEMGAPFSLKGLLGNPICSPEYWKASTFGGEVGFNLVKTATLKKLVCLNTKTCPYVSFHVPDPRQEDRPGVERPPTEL
Procedure: (§1) Inhibitory potency of the compounds against COX-1 and COX-2 enzymes was determined using fluorometric COX-1 and COX-2 inhibitor screening kits (Biovision, Zurich, Switzerland). Experimental protocol was followed as described in the guides of the supplier[47]^,[48]. All of the pipettings in the assay were performed by Biotek Precision robotic system (BioTek Instruments, Inc., Winooski, VT). […] Appropriate two points (T1 and T2) in the linear range of the plot were chosen, and the corresponding fluorescence values (RFU1 and RFU2) were obtained. The slope for all samples, including enzyme control (EC), by dividing the net ΔRFU (RFU2–RFU1) values by the time ΔT (T2–T1) were calculated by using following equation: % Relative inhibition=(Slope of EC-Slope of S/Slope of EC)×100
(§2) This initial in vitro assay was done with two concentrations (10^−3 and 10^−4 M) for all compounds. […] The IC50 value was calculated from the plots of enzyme activity against concentrations by applying regression analyses on GraphPad Prism Version 5 (GraphPad Software, La Jolla, CA).
(§3) Selectivity indexes (SI) were expressed as IC50 (COX-1)/IC50 (COX-2). Selectivity toward COX-2 decreases as the corresponding SI decreases while selectivity toward COX-1 isoform increases as the corresponding SI decreases.

[2] = target: T2, COX-2 (Homo sapiens, UniProt P35354); assay: fluorometric COX-2 inhibitor screening kit assay; format: biochemical; conditions: 25 °C
T2 construct: purchased Biovision K547-100
T2 sequence (P35354 18-604): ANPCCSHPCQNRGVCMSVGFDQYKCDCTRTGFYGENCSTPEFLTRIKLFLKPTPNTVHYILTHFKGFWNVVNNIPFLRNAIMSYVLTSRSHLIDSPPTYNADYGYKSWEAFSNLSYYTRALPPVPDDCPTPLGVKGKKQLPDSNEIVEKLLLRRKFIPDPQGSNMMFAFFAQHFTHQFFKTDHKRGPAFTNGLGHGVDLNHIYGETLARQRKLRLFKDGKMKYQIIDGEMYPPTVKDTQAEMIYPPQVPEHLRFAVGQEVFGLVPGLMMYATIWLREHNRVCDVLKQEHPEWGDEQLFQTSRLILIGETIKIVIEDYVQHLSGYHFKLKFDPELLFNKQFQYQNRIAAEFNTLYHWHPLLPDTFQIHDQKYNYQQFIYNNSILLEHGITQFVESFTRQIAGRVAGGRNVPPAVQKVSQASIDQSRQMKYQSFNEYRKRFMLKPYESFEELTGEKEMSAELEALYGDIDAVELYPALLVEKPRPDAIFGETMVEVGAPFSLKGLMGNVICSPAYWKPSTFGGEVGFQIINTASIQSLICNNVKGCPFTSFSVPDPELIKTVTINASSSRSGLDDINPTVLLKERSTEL
Procedure: as §1, §2, §3

[3] = test system: Enterococcus faecalis (ATCC 29212); assay: broth microdilution MIC (CLSI M07-A9), resazurin; format: cell-based; conditions: ATCC29212, 24 h
Procedure: (§4) Microbiological studies were performed according to following guides: CLSI reference […]-A9 broth microdilution method[49] for bacterial strains and EUCAST definitive (EDef 7.1) method[50] for Candida species. Synthesized compounds were tested for their in vitro growth inhibitory activity against Staphylococcus aureus (ATCC 25923), Enterococcus faecalis (ATCC 29212), Listeria monocytogenes (ATCC 1911), Klebsiella pneumoniae (NCTC 9633), Escherichia coli (ATCC 35218), E. coli (ATCC 25922) Candida albicans (ATCC 24433) Candida krusei (ATCC 6258) and Candida parapsilosis (ATCC 22019). Chloramphenicol and ketoconazole were used as control drugs. The cultures were obtained from the Mueller-Hinton broth (Difco) for the bacterial strains after overnight incubation at 37 °C. The yeasts were maintained in Roswell Park Memorial Institute (RPMI) after overnight incubation at 37 °C. […] Testing was carried out in Mueller-Hinton broth and RPMI at pH =7, and the two-fold serial dilutions technique was applied. The last well on the microplates containing only inoculated broth was kept as controls and the last well with no growth of microorganism was recorded to represent the minimum inhibitory concentration (MIC) expressed in μg/mL. For both the antibacterial and antifungal assays, the compounds were dissolved in DMSO. […] The completed plates were incubated for 24 h. At the end of the incubation, resazurin (20 μg/mL) was added into each well and plates were incubated for 2 h. MIC values were determined using a microplate reader at […]. Synthesized compounds (6a-6m) were evaluated for antimicrobial activity against various microorganisms such as Staphylococcus aureus (ATCC 25923), Enterococcus faecalis (ATCC 29212), Listeria monocytogenes (ATCC 1911), Klebsiella pneumoniae (NCTC 9633), Escherichia coli (ATCC 35218), E. coli (ATCC 25922)Candida albicans (ATCC 24433) Candida krusei (ATCC 6258) and Candida parapsilosis (ATCC 22019). […] Chloramphenicol and ketoconazole were used as standard drugs in the activity test. […] Besides, the compounds 6d, 6h, 6l and 6m indicated stronger antibacterial activity than the other compounds in the series.

[4] = test system: Escherichia coli (ATCC 25922); assay: broth microdilution MIC (CLSI M07-A9), resazurin; format: cell-based; conditions: ATCC25922, 24 h, read-out: MIC Ec-2
Procedure: as §4

[5] = test system: Escherichia coli (ATCC 35218); assay: broth microdilution MIC (CLSI M07-A9), resazurin; format: cell-based; conditions: ATCC35218, 24 h, read-out: MIC Ec-1
Procedure: as §4

[6] = test system: Klebsiella pneumoniae (NCTC 9633); assay: broth microdilution MIC (CLSI M07-A9), resazurin; format: cell-based; conditions: 24 h
Procedure: as §4

[7] = test system: Listeria monocytogenes (ATCC 1911); assay: broth microdilution MIC (CLSI M07-A9), resazurin; format: cell-based; conditions: ATCC1911, 24 h
Procedure: as §4

[8] = test system: Staphylococcus aureus (ATCC 25923); assay: broth microdilution MIC (CLSI M07-A9), resazurin; format: cell-based; conditions: ATCC25923, 24 h
Procedure: as §4

[9] = test system: Candida albicans (ATCC 24433); assay: broth dilution MIC (EUCAST EDef 7.1), resazurin; format: cell-based; conditions: ATCC24433, 24 h
Procedure: as §4

[10] = test system: Candida krusei (ATCC 6258); assay: broth dilution MIC (EUCAST EDef 7.1), resazurin; format: cell-based; conditions: Pichia kudriavzevii, ATCC6258, 24 h
Procedure: as §4

[11] = test system: Candida parapsilosis (ATCC 22019); assay: broth dilution MIC (EUCAST EDef 7.1), resazurin; format: cell-based; conditions: ATCC22019, 24 h
Procedure: as §4

[12] = MTT cytotoxicity test; conditions: mouse
Procedure: NIH/3T3 cells were incubated according to the supplier’s recommendations. NIH/3T3 cells were seeded at 1 × 10^4 cells into each well of 96-well plates. MTT assay was performed as previously described[51]^,[52].
There are a number of requirements to be fulfilled for successful new drug development. […] This assay is based upon the reduction of yellow MTT dye by metabolically active eukaryotic and prokaryotic cells to form the purple formazan product. The assay is generally used to examine cell viability and to estimate cell culture growth[66]^,[67].

| SI (selectivity index) [1] | IC50 [1] [µM] | Selectivity [1] | IC50 [2] [µM] | MIC [3] [µg/mL] | MIC [4] [µg/mL] | MIC [5] [µg/mL] | MIC Kp [6] [µg/mL] | MIC [7] [µg/mL] | MIC [8] [µg/mL] | MIC [9] [µg/mL] | MIC [10] [µg/mL] | MIC [11] [µg/mL] | melting point [°C] | SMILES | IC50 [12] [µM] |
| --- | --- | --- | --- | --- | --- | --- | --- | --- | --- | --- | --- | --- | --- | --- | --- |
| 0.62 | 5.9 | COX-1 | 9.56 | 12.5 (≈ 40 µM) | 12.5 (≈ 40 µM) | 6.25 (≈ 20 µM) | 6.25 (≈ 20 µM) | 12.5 (≈ 40 µM) | 12.5 (≈ 40 µM) | 100 (≈ 320 µM) | 100 (≈ 320 µM) | 50 (≈ 160 µM) | 208.7 to 210.9 | CC(C(=O)O)c1ccc(CSc2nc3ccccc3[nH]2)cc1 (centres unmarked) [Compound 6i, 2-(4-(((1H-benzo[d]imidazol-2-yl)thio)methyl)phenyl)propanoic acid] | – |
| 0.58 | 4.4 | COX-1 | 7.53 | 12.5 (≈ 38.3 µM) | 12.5 (≈ 38.3 µM) | 6.25 (≈ 19.1 µM) | 6.25 (≈ 19.1 µM) | 12.5 (≈ 38.3 µM) | 12.5 (≈ 38.3 µM) | 100 (≈ 306 µM) | 100 (≈ 306 µM) | 50 (≈ 153 µM) | 209.1 to 211.6 | Cc1ccc2[nH]c(SCc3ccc(C(C)C(=O)O)cc3)nc2c1 (centres unmarked) [Compound 6j, 2-(4-(((5-Methyl-1H-benzo[d]imidazol-2-yl)thio)methyl)phenyl)propanoic acid] | – |
| 0.63 | 3.71 | COX-1 | 5.91 | 12.5 (≈ 36 µM) | 12.5 (≈ 36 µM) | 6.25 (≈ 18 µM) | 6.25 (≈ 18 µM) | 12.5 (≈ 36 µM) | 12.5 (≈ 36 µM) | 50 (≈ 144 µM) | 50 (≈ 144 µM) | 50 (≈ 144 µM) | 208.8 to 211.5 | CC(C(=O)O)c1ccc(CSc2nc3cc(Cl)ccc3[nH]2)cc1 (centres unmarked) [Compound 6k, 2-(4-(((5-Chloro-1H-benzo[d]imidazol-2-yl)thio)methyl)phenyl)propanoic acid] | – |
| 0.52 | 4.48 | COX-1 | 8.66 | 6.25 (≈ 17.5 µM) | 6.25 (≈ 17.5 µM) | 6.25 (≈ 17.5 µM) | 6.25 (≈ 17.5 µM) | 12.5 (≈ 35 µM) | 6.25 (≈ 17.5 µM) | 50 (≈ 140 µM) | 50 (≈ 140 µM) | 50 (≈ 140 µM) | 176.5 to 178.7 | CC(C(=O)O)c1ccc(CSc2nc3cc([N+](=O)[O-])ccc3[nH]2)cc1 (centres unmarked) [Compound 6m, 2-(4-(((5-Nitro-1H-benzo[d]imidazol-2-yl)thio)methyl)phenyl)propanoic acid] | – |
| – | – | – | – | – | – | – | – | – | – | – | – | – | – | CC(C)Cc1ccc(C(C)C(=O)O)cc1 (centres unmarked) [Ibuprofen, reference compound] | ≥ 1000 |

| SMILES | SI (selectivity index) [1] | IC50 [1] [µM] | Selectivity [1] | IC50 [2] [µM] | MIC [3] [µg/mL] | MIC [4] [µg/mL] | MIC [5] [µg/mL] | MIC Kp [6] [µg/mL] | MIC [7] [µg/mL] | MIC [8] [µg/mL] | MIC [9] [µg/mL] | MIC [10] [µg/mL] | MIC [11] [µg/mL] | melting point [°C] | IC50 [12] [µM] |
| --- | --- | --- | --- | --- | --- | --- | --- | --- | --- | --- | --- | --- | --- | --- | --- |
| CS(=O)(=O)Nc1ccc([N+](=O)[O-])cc1Oc1ccccc1 [Nimesulide, reference compound] | – | 4.28 | – | – | – | – | – | – | – | – | – | – | – | – | ≥ 1000 |

— publication PMC6445163, “Design, synthesis, and evaluation of novel 2-phenylpropionic acid derivatives as dual COX inhibitory-antibacterial agents” (Journal of Enzyme Inhibition and Medicinal Chemistry, 2017)
